The values below come from US20220227762A1, “AMIDE-SUBSTITUTED IMIDAZO COMPOUNDS AS SELECTIVE INHIBITORS OF INDOLEAMINE 2,3-DIOXYGENASES” (BEIGENE, LTD., priority 2019, published 2022).

The target in the assay is T1, IDO1 (Homo sapiens, UniProt P14902).
T1 construct: endogenous in cells; host or cells: HeLa cells (American Type Culture Collection), induced with human recombinant IFN-γ
T1 sequence (P14902 whole entry): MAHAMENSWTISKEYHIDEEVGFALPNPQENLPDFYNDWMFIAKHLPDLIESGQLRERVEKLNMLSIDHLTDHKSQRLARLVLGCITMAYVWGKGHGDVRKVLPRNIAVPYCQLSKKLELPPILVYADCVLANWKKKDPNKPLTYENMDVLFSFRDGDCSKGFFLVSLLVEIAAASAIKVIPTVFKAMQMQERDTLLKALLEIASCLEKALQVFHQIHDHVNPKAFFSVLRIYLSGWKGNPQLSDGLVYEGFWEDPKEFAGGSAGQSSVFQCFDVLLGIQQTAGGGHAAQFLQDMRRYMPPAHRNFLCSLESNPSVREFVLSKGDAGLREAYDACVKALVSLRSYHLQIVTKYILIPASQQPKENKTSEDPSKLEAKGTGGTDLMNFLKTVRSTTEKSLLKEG
In words: HeLa Cell-Based IDO1 Kyn (Kynurenine) Production Assay. To be noted: HeLa cells, IDO1 induced by IFN-γ, 0.4 mM L-Trp, 48 hours incubation, Kyn absorbance at 480 nm; read-out: Cell-Based EC50 (nM) Hela IDO1. Here is the method: HeLa Cell-Based IDO1 Kyn (Kynurenine) Production Assay:
The inhibitory activity of IDO1 inhibitors is determined by using a colorimetric reaction to measure Kyn generated from L-Trp (L-Tryptophon) oxidation by cellular IDO1 in HeLa cells after induction of IDO1 expression by IFN-γ. Hela cells were obtained from the American Type Culture Collection and recovered in 10% FBS-containing phenol red-free DMEM medium. Cells were plated onto a 96-well plate (100 μl/well) at 8000 cells per well and kept at 37° C. in a humidified incubator supplied with 5% CO2. 4 hours later, Human recombinant IFN-γ (8901SC, CST) was added to cells (final concentration 100 ng/mL) to stimulate endogenous IDO1. Compounds at different concentrations diluted in dimethylsulfoxide (DMSO) were added simultaneously with IFN-γ and 0.4 mM L-Trp. Cells were kept at 37° C. in a humidified incubator supplied with 5% CO2. After 48 hours of incubation, 100 μl supernatant from each well was removed to a new plate. The protein in the medium was precipitated with the addition of 8 μl 6N trichloroacetic acid. The plate was incubated at 60° C. for 30 minutes and then centrifugation at 2500 rpm for 10 minutes to remove sediments. 80 μl supernatants were carefully removed to a new clean plate and added with an equal volume of 2% 4-(Dimethylamino)benzaldehyde (D2004, Sigma) dissolved in glacial acetic acid. The absorbance at 480 nm wavelength derived from Kyn was measured using a PHERAstar FS plate reader (BMG LABTECH). The IC50 for each compound was derived from fitting the dose-response data to the four-parameter logistic model by using XLfit software (IDBS).
Consider `CC(c1nc2cnc(C(=O)NC3CC3)cc2[nH]1)[C@H]1CC[C@@H](c2ccnc3ccc(F)cc32)CC1` (mixture of isomers) [Example 22, N-cyclopropyl-2-(1-((1s,4s)-4-(6-fluoroquinolin-4-yl)cyclohexyl)ethyl)-1H-imidazo[4,5-c]pyridine-6-carboxamide], for which the EC50 is 3.12 nM. The figure for `CNC(=O)c1cc2[nH]c(C(C)[C@H]3CC[C@@H](c4ccnc5ccc(F)cc54)CC3)nc2cn1` (mixture of isomers) [Example 23, 2-(1-((1s,4s)-4-(6-fluoroquinolin-4-yl)cyclohexyl)ethyl)-N-methyl-1H-imidazo[4,5-c]pyridine-6-carboxamide] is 7.12 nM.

As for `CNC(=O)c1ccc2[nH]c(C(C)[C@H]3CC[C@@H](c4ccnc5ccc(F)cc54)CC3)nc2c1` (stereo partly shown) [Example 1, 2-(1-((1s,4s)-4-(6-fluoroquinolin-4-yl)cyclohexyl)ethyl)-N-methyl-1H-benzo[d]imidazole-5-carboxamide], the EC50 worked out at 64.1 nM.

In the case of `CC(C)NC(=O)c1ccc2nc([C@H](C)[C@H]3CC[C@@H](c4ccnc5ccc(F)cc54)CC3)[nH]c2c1` [Example 2, 2-((R)-1-((1s,4S)-4-(6-fluoroquinolin-4-yl)cyclohexyl)ethyl)-N-isopropyl-1H-benzo[d]imidazole-6-carboxamide], the EC50 came to 50.6 nM. Regarding `C[C@@H](c1nc2ccc(C(=O)NC(C)(C)C)cc2[nH]1)[C@H]1CC[C@@H](c2ccnc3ccc(F)cc32)CC1` [Example 3, N-(tert-butyl)-2-((R)-1-((1s,4S)-4-(6-fluoroquinolin-4-yl)cyclohexyl)ethyl)-1H-benzo[d]imidazole-6-carboxamide], the EC50 is 74.5 nM.

In the case of `C[C@@H](c1nc2ccc(C(=O)NC3CCCC3)cc2[nH]1)[C@H]1CC[C@@H](c2ccnc3ccc(F)cc32)CC1` [Example 5, N-cyclopentyl-2-((R)-1-((1s,4S)-4-(6-fluoroquinolin-4-yl)cyclohexyl)ethyl)-1H-benzo[d]imidazole-6-carboxamide], the EC50 was 38.8 nM. Regarding `C[C@@H](c1nc2ccc(C(=O)NC3CCCCC3)cc2[nH]1)[C@H]1CC[C@@H](c2ccnc3ccc(F)cc32)CC1` [Example 6, N-cyclohexyl-2-((R)-1-((1s,4S)-4-(6-fluoroquinolin-4-yl)cyclohexyl)ethyl)-1H-benzo[d]imidazole-6-carboxamide], the EC50 came out at 40.2 nM. For `CONC(=O)c1ccc2nc(C(C)[C@H]3CC[C@@H](c4ccnc5ccc(F)cc54)CC3)[nH]c2c1` (stereo partly shown) [Example 7, 2-(1-((1s,4s)-4-(6-fluoroquinolin-4-yl)cyclohexyl)ethyl)-N-methoxy-1H-benzo[d]imidazole-6-carboxamide], the EC50 worked out at 470 nM. Under `CC(c1nc2cc(C(=O)N(C)C)ccc2[nH]1)[C@H]1CC[C@@H](c2ccnc3ccc(F)cc32)CC1` (stereo partly shown) [Example 8, 2-(1-((1s,4s)-4-(6-fluoroquinolin-4-yl)cyclohexyl)ethyl)-N,N-dimethyl-1H-benzo[d]imidazole-5-carboxamide] stands 46.1 nM. Under `C[C@@H](c1nc2ccc(C(=O)NC3CC3)cc2[nH]1)[C@H]1CC[C@@H](c2ccnc3ccc(F)cc32)CC1` [Example 9, N-cyclopropyl-2-((R)-1-((1s,4S)-4-(6-fluoroquinolin-4-yl)cyclohexyl)ethyl)-1H-benzo[d]imidazole-6-carboxamide] stands 12.6 nM; under `Cc1cc(C(=O)NC2CCC2)cc2nc(C(C)[C@H]3CC[C@@H](c4ccnc5ccc(F)cc54)CC3)[nH]c12` (stereo partly shown) [Example 10, N-cyclobutyl-2-(1-((1s,4s)-4-(6-fluoroquinolin-4-yl)cyclohexyl)ethyl)-7-methyl-1H-benzo[d]imidazole-5-carboxamide], 27.1 nM. As to `Cc1cc(C(=O)NC2CCC2)cc2nc([C@@H](C)[C@H]3CC[C@@H](c4ccnc5ccc(F)cc54)CC3)[nH]c12` [Example 10a, N-cyclobutyl-2-((R)-1-((1s,4S)-4-(6-fluoroquinolin-4-yl)cyclohexyl)ethyl)-7-methyl-1H-benzo[d]imidazole-5-carboxamide], the EC50 stood at 788 nM. With `Cc1cc(C(=O)NC2CCC2)cc2nc([C@H](C)[C@H]3CC[C@@H](c4ccnc5ccc(F)cc54)CC3)[nH]c12` [Example 10b, N-cyclobutyl-2-((S)-1-((1s,4R)-4-(6-fluoroquinolin-4 yl)cyclohexyl)ethyl)-7-methyl-1H-benzo[d]imidazole-5-carboxamide], the EC50 was 17.1 nM. Under `CC(c1nc2ccc(C(=O)NC3COC3)cc2[nH]1)C1CCC(c2ccnc3ccc(F)cc23)CC1` (stereo not shown) [Example 11, 2-(1-(4-(6-fluoroquinolin-4-yl)cyclohexyl)ethyl)-N-(oxetan-3-yl)-1H-benzo[d]imidazole-6-carboxamide] stands 84.1 nM. Turning to `COCCNC(=O)c1ccc2nc([C@H](C)[C@H]3CC[C@H](c4ccnc5ccc(F)cc54)CC3)[nH]c2c1` [Example 12, 2-((R)-1-((1r,4R)-4-(6-fluoroquinolin-4-yl)cyclohexyl)ethyl)-N-(2-methoxyethyl)-1H-benzo[d]imidazole-6-carboxamide], the EC50 turned out to be 959 nM.

With `COCCNC(=O)c1ccc2nc([C@H](C)[C@H]3CC[C@@H](c4ccnc5ccc(F)cc54)CC3)[nH]c2c1` [Example 13, 2-((R)-1-((1s,4S)-4-(6-fluoroquinolin-4-yl)cyclohexyl)ethyl)-N-(2-methoxyethyl)-1H-benzo[d]imidazole-6-carboxamide], the EC50 is 62.9 nM.

On to `C[C@@H](c1nc2ccc(C(=O)Nc3ccccc3)cc2[nH]1)[C@H]1CC[C@@H](c2ccnc3ccc(F)cc32)CC1` [Example 14, 2-((R)-1-((1s,4S)-4-(6-fluoroquinolin-4-yl)cyclohexyl)ethyl)-N phenyl-1H-benzo[d]imidazole-6-carboxamide], for which the EC50 is 14.4 nM. Take `C[C@@H](c1nc2ccc(C(=O)Nc3ccccc3)cc2[nH]1)[C@H]1CC[C@H](c2ccnc3ccc(F)cc32)CC1` [Example 15, 2-((R)-1-((1r,4R)-4-(6-fluoroquinolin-4-yl)cyclohexyl)ethyl)-N-phenyl-1H-benzo[d]imidazole-6-carboxamide]: the EC50 came out at 86.7 nM. As to `C[C@@H](c1nc2ccc(C(=O)NCC3(O)CCC3)cc2[nH]1)[C@H]1CC[C@@H](c2ccnc3ccc(F)cc32)CC1` [Example 16, 2-((R)-1-((1s,4S)-4-(6-fluoroquinolin-4-yl)cyclohexyl)ethyl)-N-((1-hydroxycyclobutyl)methyl)-1H-benzo[d]imidazole-6-carboxamide], the EC50 was more than 1000 nM. The figure for `C[C@@H](c1nc2ccc(C(=O)NCC3(O)CCC3)cc2[nH]1)[C@H]1CC[C@H](c2ccnc3ccc(F)cc32)CC1` [Example 17, 2-((R)-1-((1 r,4R)-4-(6-fluoroquinolin-4-yl)cyclohexyl)ethyl)-N-((1-hydroxycyclobutyl)methyl)-1H-benzo[d]imidazole-6-carboxamide] is more than 1000 nM; for `COC1CCC(NC(=O)c2ccc3nc([C@H](C)[C@H]4CC[C@@H](c5ccnc6ccc(F)cc65)CC4)[nH]c3c2)CC1` (stereo partly drawn) [Example 18, 2-((R)-1-((1s,4S)-4-(6-fluoroquinolin-4-yl)cyclohexyl)ethyl)-N-(4-methoxycyclohexyl)-1H-benzo[d]imidazole-6-carboxamide] it is 122 nM. On to `COC1CCC(NC(=O)c2ccc3nc([C@H](C)[C@H]4CC[C@H](c5ccnc6ccc(F)cc65)CC4)[nH]c3c2)CC1` (stereo partly drawn) [Example 19, 2-((R)-1-((1r,4R)-4-(6-fluoroquinolin-4-yl)cyclohexyl)ethyl)-N-(4-methoxycyclohexyl)-1H-benzo[d]imidazole-6-carboxamide], for which the EC50 is 193 nM. Take `CC(c1nc2cc(C(=O)NC3CC3)c(F)cc2[nH]1)[C@H]1CC[C@@H](c2ccnc3ccc(F)cc32)CC1` (stereo partly drawn) [Example 20, N-cyclopropyl-6-fluoro-2-(1-((1s,4S)-4-(6-fluoroquinolin-4-yl)cyclohexyl)ethyl)-1H-benzo[d]imidazole-5-carboxamide]: the EC50 is 6.9 nM.

Regarding `CC(c1nc2c(F)c(F)c(C(=O)NC3CC3)cc2[nH]1)[C@H]1CC[C@@H](c2ccnc3ccc(F)cc32)CC1` (stereo partly shown) [Example 21, N-cyclopropyl-4,5-difluoro-2-(1-((1s,4s)-4-(6-fluoroquinolin-4-yl)cyclohexyl)ethyl)-1H-benzo[d]imidazole-6-carboxamide], the 50% effective concentration (EC50) was found to be 8.9 nM. Take `C[C@@H](c1nc2cc(C(=O)NC3CC3)cnc2[nH]1)[C@H]1CC[C@@H](c2ccnc3ccc(F)cc32)CC1` [Example 24, N-cyclopropyl-2-((R)-1-((1s,4S)-4-(6-fluoroquinolin-4-yl)cyclohexyl)ethyl)-3H-imidazo[4,5-b]pyridine-6-carboxamide]: the EC50 amounted to 24.9 nM.
